# Literature values, collected in PMC8113213, “Physiologically based kinetic modelling based prediction of in vivo rat and human acetylcholinesterase (AChE) inhibition upon exposure to diazinon” (Archives of Toxicology, 2021).
# Read-outs that look alike come from different tables or passages of the source.
# Legend:
# [1] = test system: RBC AChE; settings: ref USEPA 2016, cited from earlier work; for Reported BMDL10 from EPA (pups): RBC AChE inhibition in female rat pups (PND11)
# [2] = test system: brain AChE; settings: cited from earlier work; for inhibition of brain AChE: ref Padilla et al. 2004
smiles,measurement,setting,value
"CCOP(=S)(OCC)Oc1cc(C)nc(C(C)C)n1 [DZN, O,O-diethyl O-2-isopropyl-6-methylpyrimidin-4-yl phosphorothioate]",Reported BMDL10 from EPA (pups),[1],3 mg/kg bw
same,Reported BMDL10 from EPA (pups),[1]; listed as Diazinon,3.0 mg/kg bw
same,BMDL10 for inhibition of RBC AChE,"[1]; male adult rats, oral DZN",4.804 mg/kg bw/day
same,Reported BMDL10 from EPA (adult rat),[1],4.8 mg/kg bw
same,inhibition of brain AChE,"[2]; adult rats, oral dose of 75 mg/kg bw",38%
same,BMDL10 for inhibition of brain AChE,"[2]; male adult rats, oral DZN, ref USEPA 2016",12.175 mg/kg bw/day
same,inhibition of brain AChE,"[2]; pups at postnatal day 17, oral dose of 75 mg/kg bw",75%
